Experimental data taken from patent US20130296347A1, “Compositions and Methods for Prophylaxis and Treatment of Addictions” (Omeros Corporation, priority 2007, published 2013).
Entries after “also recorded” stand apart in the source; their conditions may differ.

Assays:
[1] = tested on: Marchigian Sardinian alcohol-preferring (msP) rats; test: Acute voluntary ethanol intake, alcohol access restricted to 2 hours/day; assay type: in vivo, rat
Experimental: At the beginning of the experiments, msP rats were allowed free choice between water and 10% (v/v) alcohol 24 h/day for at least 15 days. The fluids were offered in graduated drinking tubes equipped with metallic drinking spouts. The position (to the right or left) of alcohol and water drinking tubes was changed daily to avoid the development of side preference. Water and food were available ad libitum, while alcohol access was either restricted to 2 hours/day (Examples 1 and 2) or was available 24 hours/day (Examples 3 and 4). Alcohol, water and food intakes were measured.
. After acquisition of a stable baseline of ethanol intake (6-8 g/kg bw; daily), alcohol access was restricted to 2 hours a day at the beginning of the dark phase. Water and food were freely available.
[…]. Before starting the treatment, rats were trained to gavage administration procedures for three days, during which they received vehicle (distilled water).
Treatments were carried out at intervals of at least three days. […] Drinking experiments were conducted right at the beginning of the dark cycle. Alcohol, water and food intakes were monitored at 30, 60, 90 and 120 minutes after ethanol was made available.
The msP rats (n=8) were prepared for the study as described in Example 1. After acquisition of a stable baseline of ethanol intake, alcohol access was restricted to 2 hours a day at the beginning of the dark phase. Water and food were freely available. […]. The experiment was conducted using a within subject counterbalanced Latine square design where each animal received all drug doses.
These experiments were conducted at the beginning of the dark cycle and alcohol, and water and food intakes were monitored at 30, 60, 90 and 120 minutes after ethanol was made available.

msP rats [2] = test: Acute voluntary ethanol intake, free choice 10% alcohol 24 hours a day; assay type: in vivo, rat
Experimental: MsP rats were first trained to drink 10% (w/v) alcohol for 24 hours a day (free choice between water and ethanol). […] Before starting the treatment, rats were trained to gavage administration procedures for three days, during which they received vehicle (distilled water). […] Drinking experiments started at the beginning of the dark cycle. Alcohol, water and food intakes were monitored at 2, 8 and 24 hours after ethanol was made available.
Before starting the treatment, rats were trained to gavage and IP administration procedures for three days. Experiment was conducted in a between subject design (n=22). […] Drinking experiments started at the beginning of the dark cycle. Alcohol, water and food intakes were monitored at 2, 8 and 24 hours after ethanol was made available.
The drinking experiments were conducted at the beginning of the dark cycle, and alcohol, water and food intakes were monitored at 2, 8 and 24 hours after ethanol was made available.
(§1) MsP rats were first trained to drink 10% (w/v) alcohol for 24 hours a day (free choice between water and ethanol). […] Rats treated with drug vehicles served as a control. Before starting the treatment, rats were trained to gavage administration for three days, during which they received drugs vehicle (distilled water). […] Drinking experiments started at the beginning of the dark cycle. Alcohol, water, and food intakes were monitored at 2, 8 and 24 hours after ethanol was made available.
as §1, with “water” for “water,”
as §1, with “water” for “water,”
as §1, with “water” for “water,”
as §1, with “water” for “water,”
as §1, with “water” for “water,”

Wistar rats [3] = test: Alcohol withdrawal score after six days of intermittent alcohol intoxication; assay type: in vivo, rat
Experimental: Male Wistar rats were subjected to a six days of intermittent alcohol intoxication. […] The first ethanol dose was given at the beginning of the dark phase. The other 3 daily doses were administered at intervals of 3 hours. Rats were not injected during the light phase of the light/dark cycle. […] Behavioural signs of withdrawal included: (1) presence of the ventromedial distal flexion response; (2) tail stiffness/rigidity; and (3) tremors (Schulteis et al. 1995). […] Schulteis, et al., 1995). All signs were cumulated to yield an overall withdrawal severity score.

alcoholic patients = test: Observational study of alcohol abuse in human patients; assay type: in vivo
Excerpt: ACT)+psychotherapy. […] Patients were instructed to record in a personal logbook the number of drinks per day and the time of the day drinks occurred. At the end of the study, the logbooks were returned to the clinical personnel who analyzed the data. […] In addition, biochemical parameters to ascertain alcohol detoxification and to measure recovery of physiological functions (i.e., hepatic function) were monitored monthly. Hematological parameters measured included: mean corpuscular volume (MCV); gamma-GT; aspartate aminotransferase (AST); alanine aminotransferase (ALT); and carbohydrate-deficient transferring (CDT). MCV and CDT are biomarkers for ethanol consumption, and GGT, ALT and AST are biomarkers for hepatic functionality. Data were analyzed by analysis of variance followed by Newman-Keuls post hoc tests when appropriate.

Wistar rats [4] = test: Acquisition of heroin self-administration (FR1); assay type: in vivo, rat
msP rats [5] = test: Yohimbine-induced (stress) reinstatement of alcohol seeking
Excerpt: Stress-induced reinstatement of alcohol-seeking experimental procedures consisted of three phases: (1) training phase; (2) extinction phase; and (3) reinstatement phase, as described below.
For the training phase, after completion of the fading procedure, msP rats were trained to self-administer 10% (v/v) alcohol for 15 days in 30-min daily sessions under a FR1 schedule of reinforcement. During the infusion, a stimulus house light was turned on for 5 s (time out; TO).
For the extinction phase, after the last alcohol self-administration session, animals were subjected to 30-min extinction sessions for 15 consecutive days.
The day after the last extinction session, rats were subjected to the reinstatement test.
Animals received all drug treatments according to a counterbalance Latin square design. A 3-day interval, during which animals were subjected to extinction sessions, was allowed between drug tests.

[6] = pioglitazone 30 mg/kg OS at 12 hours and 1 hour before access to ethanol
[7] = pioglitazone 10 and 30 mg/kg, p<0.01
[8] = pioglitazone 30 mg/day or naltrexone 50 mg/day + psychotherapy

CCc1ccc(CCOc2ccc(CC3SC(=O)NC3=O)cc2)nc1.Cl (centres unmarked) [pioglitazone]
ethanol consumption at 30, 60, or 90 minutes [1, 6]: not at 30, 60, or 90 minutes | ethanol consumption at 2 hours [1, 6]: significantly reduced | ethanol intake, overall treatment effect (ANOVA) ([1]; pioglitazone 10.0, 30.0 mg/kg OS): absence of a significant treatment effect | ethanol intake, drug alone (post-hoc) (msP rats [2]; low dose given at 12 hours and 1 hour before access, pioglitazone 10 mg/kg OS, partner drugs at doses of the examples): did not significantly modify | ethanol intake at 2 hours, drug alone (msP rats [2]; pioglitazone 10 mg/kg OS, topiramate 30.0 mg/kg OS, p<0.05): significant reduction | ethanol consumption at 2 hours (msP rats [2]; pioglitazone 30 mg/kg OS): significantly reduced | ethanol consumption at 8 hours (msP rats [2]; pioglitazone 30 mg/kg OS): significantly reduced | ethanol consumption at 24 hours (msP rats [2]; pioglitazone 30 mg/kg OS): significantly reduced | alcohol withdrawal signs (Wistar rats [3]; pioglitazone 10 mg/kg and 30 mg/kg, 12 hours and 1 hour before rating): significantly reduced | tail rigidity (Wistar rats [3]; [7]): highly significant effect | tremors (Wistar rats [3]; [7]): highly significant effect | ventromedial limb retraction (Wistar rats [3]; [7]): highly significant effect | rats showing seizures during withdrawal (Wistar rats [3]; pioglitazone treated rats (two out of 7 vehicle animals showed convulsion)): none of the 12 rats | hepatic parameters (GGT, ALT, AST) (alcoholic patients; 2-month treatment): more pronounced | Anxiety Score, STAY-Y1 scale (mean score values) (alcoholic patients; T = 1.1 (month 1, week 1)): 58 | Depression Scale M.A.D.R.S (mean score values) (alcoholic patients; T = 1.3): 10 | Depression Scale M.A.D.R.S (mean score values) (alcoholic patients; T = 1.4): 11 | Depression Scale M.A.D.R.S (mean score values) (alcoholic patients; T = 2.3): 10 | depression score, time course (alcoholic patients; during treatment with pioglitazone 30 mg/day): decreased starting from the second week of treatment | effect on daily drinks, comparison of drugs (alcoholic patients; month 2 week 2 (T2.2) to month 2 week 4 (T2.4), p<0.001): significantly higher than that of naltrexone | blood parameters (MCV, CDT, GGT, ALT, AST) (alcoholic patients; pioglitazone 30 mg/day): rapid normalization | progressive decrease in anxiety score during treatment (alcoholic patients; pioglitazone 30 mg/day): highest effect | progressive decrease in obsessive compulsive score for alcohol (OCDS) (alcoholic patients; pioglitazone 30 mg/day): extremely robust; also recorded: consistently reduced | daily ethanol intake (number of daily drinks) (alcoholic patients; [8]): significantly reduced | number of abstinence days (alcoholic patients; [8]): increased; also recorded: highest effect | CDT and AST, naltrexone versus pioglitazone (alcoholic patients; post hoc): No significant difference | OCDS versus controls (alcoholic patients; post hoc, P<0.001): statistically significant difference | all five blood biomarkers versus controls (psychotherapy alone) (alcoholic patients; post hoc, P<0.001): statistical difference | reducing the values of MCV, GGT and ALT, comparison of drugs (alcoholic patients; post hoc, P<0.001): more effective than naltrexone | MADRS depression score, pioglitazone versus naltrexone (alcoholic patients; post hoc, p<0.001): significantly different | OCDS, pioglitazone versus naltrexone (alcoholic patients; post hoc, p<0.001): more effective than naltrexone | anxiety score, pioglitazone versus naltrexone (alcoholic patients; post hoc, p<0.001): more effective than naltrexone | number of abstinence days, comparison of drugs (alcoholic patients; second month of therapy (T 2.1-T2.4)): significantly higher | heroin self-administration versus control, day 3 to day 8 (Wistar rats [4]; pioglitazone 30 mg/kg twice daily): significant difference | acquisition of heroin self-administration (Wistar rats [4]; pioglitazone 30 mg/kg twice daily (12 hours and 1 hour prior to session)): significantly decreased | yohimbine-induced reinstatement of alcohol seeking (active lever) (msP rats [5]; pioglitazone 10 mg/kg OS at 12 hours and 1 hour before test): clear trend (p=0.07) to an inhibition | yohimbine-induced reinstatement of alcohol seeking (active lever) (msP rats [5]; pioglitazone 30 mg/kg OS at 12 hours and 1 hour before test, p<0.01): significant inhibition | effect of yohimbine on reinstatement of responding, overall (msP rats [5]; pre-treatment with pioglitazone 10.0 and 30.0 mg/kg): significantly reduced; also recorded: markedly reduced
